Laboratory results reported in patent publication US11160280B2, “Pesticial compounds” (BASF SE, priority 2017, dated 2021).

Key:
Format in all cases: in vivo
[1] = system: Orchid thrips (Dichromothrips corbetti); assay: Action on orchid thrips (Dichromothrips corbetti), floral-immersion technique; settings: adult thrips, mortality 72 hours after treatment, read-out: mortality in comparison with untreated controls
Method: Example B2: Action on Orchid thrips (Dichromothrips corbetti)
Dichromothrips corbetti adults used for bioassay were obtained from a colony maintained continuously under laboratory conditions. For testing purposes, the test compound is diluted in a 1:1 mixture of acetone:water (vol:vol), plus Kinetic® HV at a rate of 0.01% v/v.
Thrips potency of each compound was evaluated by using a floral-immersion technique. All petals of individual, intact orchid flowers were dipped into treatment solution and allowed to dry in Petri dishes. Treated petals were placed into individual re-sealable plastic along with about […]. All test arenas were held under continuous light and a temperature of about 28° C. for duration of the assay. After 3 days, the numbers of live thrips were counted on each petal. The percent mortality was recorded 72 hours after treatment.

[2] = system: Diamond Back Moth (Plutella xylostella); assay: Action on diamond back moth (Plutella xylostella), cabbage leaf dip; settings: foliar, 3rd instar larvae on dipped cabbage leaves, mortality 72 hours after treatment, read-out: mortality in comparison with untreated controls
Method: Example B6: Action on Diamond Back Moth (Plutella xylostella)
The active compound is dissolved at the desired concentration in a mixture of 1:1 (vol:vol) distilled water:acetone. Surfactant (Kinetic® HV) is added at a rate of 0.01% (vol/vol). The test solution is prepared at the day of use.
Leaves of cabbage were dipped in test solution and air-dried. Treated leaves were placed in petri dishes lined with moist filter paper and inoculated with ten 3rd instar larvae. Mortality was recorded 72 hours after treatment. Feeding damages were also recorded using a scale of 0-100%.

[3] = system: Southern Armyworm (Spodoptera eridania), 2nd Instar Larvae; assay: Action on southern armyworm (Spodoptera eridania), 2nd instar larvae on sprayed lima bean plants; settings: 96 h, 2nd instar larvae on lima bean plants, 4 days after treatment, read-out: mortality in comparison with untreated controls
Method: Example B7: Action on Southern Armyworm (Spodoptera eridania), 2nd Instar Larvae
The active compounds were formulated by a Tecan liquid handler in 100% cyclohexanone as a 10,000 ppm solution supplied in tubes. The 10,000 ppm solution was serially diluted in 100% cyclohexanone to make interim solutions. These served as stock solutions for which final dilutions were made by the Tecan in 50% acetone:50% water (v/v) into 10 or 20 ml glass vials. A nonionic surfactant (Kinetic®) was included in the solution at a volume of 0.01% (v/v). The vials were then inserted into an automated electrostatic sprayer equipped with an atomizing nozzle for application to plants/insects.
Lima bean plants (variety Sieva) were grown 2 plants to a pot and selected for treatment at the 1st true leaf stage. Test solutions were sprayed onto the foliage by an automated electrostatic plant sprayer equipped with an atomizing spray nozzle. The plants were dried in the sprayer fume hood and then removed from the sprayer. Each pot was placed into perforated plastic bags with a zip closure. About 10 to 11 armyworm larvae were placed into the bag and the bags zipped closed. Test plants were maintained in a growth room at about 25° C. and about 20-40% relative humidity for 4 days, avoiding direct exposure to fluorescent light (24 hour photoperiod) to prevent trapping of heat inside the bags. Mortality and reduced feeding were assessed 4 days after treatment, compared to untreated control plants.

[4] = system: boll weevil (Anthonomus grandis); assay: Action on boll weevil (Anthonomus grandis), eggs on insect diet in microtiter plates; settings: 120 h, egg and larval mortality after 5 days, read-out: mortality in comparison with untreated controls
Method: Example B3: Action on Boll Weevil (Anthonomus grandis)
For evaluating control of boll weevil (Anthonomus grandis) the test unit consisted of 96-well-microtiter plates containing an insect diet and 5-10 A. grandis eggs.
The compounds were formulated using a solution containing 75% v/v water and 25% v/v DMSO. Different concentrations of formulated compounds were sprayed onto the insect diet at 5 μl, using a custom built micro atomizer, at two replications.
After application, microtiter plates were incubated at about 25±1° C. and about 75±5% relative humidity for 5 days. Egg and larval mortality was then visually assessed.

[5] = system: yellow fever mosquito (Aedes aegypti); assay: whole plant or invertebrate; settings: 48 h, larval mortality visually assessed after 2 days, read-out: mortality in comparison with untreated controls
Method: Example B1: Action on Yellow Fever Mosquito (Aedes aegypti)
For evaluating control of yellow fever mosquito (Aedes aegypti) the test unit consisted of 96-well-microtiter plates containing 200 μl of tap water per well and 5-15 freshly hatched A. aegypti larvae.
The active compounds were formulated using a solution containing 75% (v/v) water and 25% (v/v) DMSO. Different concentrations of formulated compounds or mixtures were sprayed onto the insect diet at 2.5 μl, using a custom built micro atomizer, at two replications.
After application, microtiter plates were incubated at 28+1° C., 80+5% RH for 2 days. Larval mortality was then visually assessed.

[6] = system: Silverleaf Whitefly (Bemisia argentifoli) (Adults); assay: Action on silverleaf whitefly (Bemisia argentifoli) adults on sprayed cotton plants; settings: Bemisia argentifolii, 72 h, mortality 3 days after treatment, read-out: mortality in comparison with untreated controls
Method: Example B4: Action on Silverleaf Whitefly (Bemisia argentifoli) (Adults)
The active compounds were formulated by a Tecan liquid handler in 100% cyclohexanone as a 10,000 ppm solution supplied in tubes. The 10,000 ppm solution was serially diluted in 100% cyclohexanone to make interim solutions. These served as stock solutions for which final dilutions were made by the Tecan in 50% acetone:50% water (v/v) into 5 or 10 ml glass vials. A nonionic surfactant (Kinetic®) was included in the solution at a volume of 0.01% (v/v). The vials were then inserted into an automated electrostatic sprayer equipped with an atomizing nozzle for application to plants/insects.
Cotton plants at the cotyledon stage (one plant per pot) were sprayed by an automated electrostatic plant sprayer equipped with an atomizing spray nozzle. The plants were dried in the sprayer fume hood and then removed from the sprayer. Each pot was pla-ced into a plastic cup and about 10 to 12 whitefly adults (approximately 3-5 days old) were introduced. The insects were collected using an aspirator and a nontoxic Tygon® tubing connected to a barrier pipette tip. The tip, containing the collected insects, was then gently inserted into the soil containing the treated plant, allowing insects to crawl out of the tip to reach the foliage for feeding. Cups were covered with a reusable screened lid. Test plants were maintained in a growth room at about 25° C. and about 20-40% relative humidity for 3 days, avoiding direct exposure to fluorescent light (24 hour photoperiod) to prevent trapping of heat inside the cup. Mortality was assessed 3 days after treatment, compared to untreated control plants.

[7] = system: tobacco budworm (Heliothis virescens); assay: Action on tobacco budworm (Heliothis virescens), eggs on insect diet in microtiter plates; settings: 120 h, egg and larval mortality after 5 days, read-out: mortality in comparison with untreated controls
Method: Example B5: Action on Tobacco Budworm (Heliothis virescens)
For evaluating control of tobacco budworm (Heliothis virescens) the test unit consisted of 96-well-microtiter plates containing an insect diet and 15-25 H. virescens eggs.
The compounds were formulated using a solution containing 75% v/v water and 25% v/v DMSO. Different concentrations of formulated compounds were sprayed onto the insect diet at 10 μl, using a custom built micro atomizer, at two replications.
After application, microtiter plates were incubated at about 28±1° C. and about 80±5% relative humidity for 5 days. Egg and larval mortality was then visually assessed.

CC(C)c1ccccc1NC(=S)N/N=C/c1ccc2c(C(C)Oc3ccc(OC(F)(F)F)cc3)nn(C)c2c1 (stereo not drawn) [Example C-12, 1-(2-isopropylphenyl)-3-[(E)-[1-methyl-3-[1-[4-(trifluoromethoxy)phenoxy]ethyl]indazol-6-yl]methyleneamino]thiourea]
≥ 75%: mortality at 500 ppm [1] | mortality at 500 ppm [2] | mortality at 300 ppm [3] | mortality at 800 ppm [4] | mortality at 800 ppm [5] | mortality at 300 ppm [6] | mortality at 800 ppm [7]

CC(C)c1ccccc1NC(=S)N/N=C/c1cc2c(cn1)c(COc1ccc(OC(F)(F)F)cc1)nn2C [Example C-15, 1-(2-isopropylphenyl)-3-[(E)-[1-methyl-3-[[4-(trifluoromethoxy)phenoxy]methyl]pyrazolo[4,3-c]pyridin-6 yl]methyleneamino]thiourea]
≥ 75%: mortality at 500 ppm [1] | mortality at 500 ppm [2] | mortality at 300 ppm [3] | mortality at 800 ppm [4] | mortality at 800 ppm [5] | mortality at 800 ppm [7]

CO[C@@H]1[C@@H](OC)[C@H](C)O[C@@H](OC(=O)Nc2ccc3c(C(=O)Nc4ccc(OC(F)(F)F)cc4)nn(C)c3c2)[C@@H]1OC [Example C-6, [(2S,3R,4R,5S,6S)-3,4,5-trimethoxy-6-methyl-tetrahydropyran-2-yl] N-[1-methyl-3-[[4-(trifluoromethoxy)phenyl]carbamoyl]indazol-6-yl]carbamate]
≥ 75%: mortality at 500 ppm [1] | mortality at 500 ppm [2] | mortality at 300 ppm [3] | mortality at 800 ppm [4] | mortality at 800 ppm [5] | mortality at 300 ppm [6] | mortality at 800 ppm [7]

CC(C)c1ccccc1N1C(=O)CS/C1=N\N=Cc1cc(F)c2c(C(=O)N(C)c3ccc(OC(F)(F)F)cc3)nn(C)c2c1 [Example C-19, 4-fluoro-6-[[(Z)-[3-(2-isopropylphenyl)-4-oxo-thiazolidin-2-ylidene]hydrazono]methyl]-N,1-dimethyl-N-[4-(trifluoromethoxy)phenyl]indazole-3-carboxamide]
≥ 75%: mortality at 500 ppm [1] | mortality at 500 ppm [2] | mortality at 300 ppm [3] | mortality at 800 ppm [4] | mortality at 800 ppm [5] | mortality at 800 ppm [7]

Cc1cccc(C)c1NC(=S)N/N=C/c1ccc2c(COc3ccc(OC(F)(F)F)cc3)nn(C)c2c1 [Example C-1, 1-(2,6-dimethylphenyl)-3-[(E)-[1-methyl-3-[[4-(trifluoromethoxy)phenoxy]methyl]indazol-6-yl]methyleneamino]thiourea]
≥ 75%: mortality at 500 ppm [1] | mortality at 500 ppm [2] | mortality at 300 ppm [3] | mortality at 800 ppm [4] | mortality at 800 ppm [5] | mortality at 800 ppm [7]

Cc1cccc(C)c1N1C(=O)CS/C1=N\N=C\c1ccc2c(COc3ccc(OC(F)(F)F)cc3)nn(C)c2c1 [Example C-2, (2Z)-3-(2,6-dimethylphenyl)-2-[(E)-[1-methyl-3-[[4-(trifluoromethoxy)phenoxy]methyl]indazol-6-yl]methylenehydrazono]thiazolidin-4-one]
≥ 75%: mortality at 500 ppm [1] | mortality at 500 ppm [2] | mortality at 800 ppm [4] | mortality at 800 ppm [5] | mortality at 800 ppm [7]

CC(C)c1ccccc1NC(=S)N/N=C/c1ccc2c(COc3ccc(OC(F)(F)F)cc3)nn(C)c2c1 [Example C-3, 1-(2-isopropylphenyl)-3-[(E)-[1-methyl-3-[[4-(trifluoromethoxy)phenoxy]methyl]indazol-6-yl]methyleneamino]thiourea]
≥ 75%: mortality at 500 ppm [1] | mortality at 500 ppm [2] | mortality at 300 ppm [3] | mortality at 800 ppm [4] | mortality at 800 ppm [5] | mortality at 300 ppm [6] | mortality at 800 ppm [7]

CC(C)c1ccccc1N1C(=O)CS/C1=N\N=C\c1ccc2c(C(C)Oc3ccc(OC(F)(F)F)cc3)nn(C)c2c1 (stereo not drawn) [Example C-13, (2Z)-3-(2-isopropylphenyl)-2-[(E)-[1-methyl-3-[1-[4-(trifluoromethoxy)phenoxy]ethyl]indazol-6-yl]methylenehydrazono]thiazolidin-4-one]
≥ 75%: mortality at 500 ppm [1] | mortality at 500 ppm [2] | mortality at 300 ppm [3] | mortality at 800 ppm [5] | mortality at 300 ppm [6] | mortality at 800 ppm [7]

CC(C)c1ccccc1/N=C1\SCC(=O)N1/N=C/c1ccc2c(C(C)Oc3ccc(OC(F)(F)F)cc3)nn(C)c2c1 (stereo not drawn) [Example C-14, (2Z)-2-(2-isopropylphenyl)imino-3-[(E)-[1-methyl-3-[1-[4-(trifluoromethoxy)phenoxy]ethyl]indazol-6-yl]methyleneamino]thiazolidin-4-one]
≥ 75%: mortality at 500 ppm [1] | mortality at 500 ppm [2] | mortality at 300 ppm [3] | mortality at 800 ppm [5] | mortality at 300 ppm [6] | mortality at 800 ppm [7]

CC(C)c1ccccc1N1C(=O)CS/C1=N\N=C\c1ccc2c(COc3ccc(OC(F)(F)F)cc3)nn(C)c2c1 [Example C-4, (2Z)-3-(2-isopropylphenyl)-2-[(E)-[1-methyl-3-[[4-(trifluoromethoxy)phenoxy]methyl]indazol-6-yl]methylenehydrazono]thiazolidin-4-one]
≥ 75%: mortality at 500 ppm [1] | mortality at 500 ppm [2] | mortality at 800 ppm [4] | mortality at 800 ppm [5]
